Article PMC8341399, “A STING-based fluorescent polarization assay for monitoring activities of cyclic dinucleotide metabolizing enzymes” (RSC Chemical Biology, 2020)
Where two headings read alike, the source gives them in different places.

What was measured:
[1] = target: T1, hSTING (Homo sapiens, UniProt Q86WV6); conditions: cited from earlier work; for Kd: natural cyclic dinucleotides, read-out: Kd (binding constant for hSTING)
T1 construct: SUMO; His; made in house; host or cells: E. coli Rosetta 2(pLysS)

[2] = target: T1, hSTING; test: Probe displacement assay: F-c-di-GMP displaced from hSTING by unlabeled cyclic dinucleotides (FP); format: binding; conditions: 50 nM F-c-di-GMP, 10 μM hSTING; read-out: apparent half maximal inhibitory concentration (displacement of F-c-di-GMP)
[3] = target: T1, hSTING; test: hSTING titration of fluorescein-labeled cyclic dinucleotide probes by fluorescence polarization; format: binding; conditions: 50 nM probe, 1× PBS, 5 min room temperature, n = 3; read-out: Kd (dissociation constant, probe-hSTING)
[4] = test system: T2, hENPP1; test: ENPP1 cGAMP hydrolysis tracking, FP assay detection; format: biochemical, human; conditions: ENPP1 9.16 nM, 50 μM cGAMP
T2 construct: purchased R&D Systems

[5] = test system: T2, hENPP1; test: ENPP1 cGAMP hydrolysis tracking, HPLC analysis; format: biochemical, human; conditions: ENPP1 9.16 nM, 50 μM cGAMP
[6] = ENPP1 hydrolysis products of cGAMP, stated without reference

T1 sequence (Q86WV6 155-341 limits assumed): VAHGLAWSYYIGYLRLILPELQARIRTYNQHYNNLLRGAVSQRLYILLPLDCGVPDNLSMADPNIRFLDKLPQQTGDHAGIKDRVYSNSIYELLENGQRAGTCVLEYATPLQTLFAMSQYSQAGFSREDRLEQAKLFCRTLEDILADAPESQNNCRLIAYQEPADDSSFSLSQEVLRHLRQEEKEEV

Q: With Nc1nc2c(ncn2[C@@H]2O[C@H](CO)[C@@H](O)[C@H]2OP(=O)(O)OC[C@H]2O[C@@H](n3cnc4c(N)ncnc43)[C@H](O)[C@@H]2OP(=O)(O)O)c(=O)[nH]1 [Gp[2′–5′]Ap[3′]] as the molecule, how does the hSTING binding ([1]; poxin product of cGAMP) read?
A: Its hSTING binding is “does not bind”.

Q: Which IC50 [2] does the source give for Nc1ncnc2c1ncn2[C@@H]1O[C@@H]2COP(=O)(O)O[C@H]3[C@@H](O)[C@H](n4cnc5c(N)ncnc54)O[C@@H]3COP(=O)(O)O[C@H]2[C@H]1O [c-di-AMP] here?
A: Its IC50 is 7.35 ± 0.86 µM.

Q: What about the Kd [1] of the same molecule?
A: The Kd was 1.38 µM.

Q: Which Kd [3] does the source give for “2′-O-(6-[fluoresceinyl]aminohexylcarbamoyl)-cyclic diguanosine monophosphate [F-c-di-GMP]” here?
A: Its Kd is 3.45 ± 0.48 µM.

Q: With “2′-O-(6-[fluoresceinyl]aminohexylcarbamoyl)-cyclic diadenosine monophosphate [F-c-di-AMP]” as the molecule, how does the Kd [3] read?
A: The Kd was 29.8 ± 6.3 µM.

Q: What does the source list for Nc1nc2c(ncn2[C@@H]2O[C@@H]3COP(=O)(O)O[C@H]4[C@@H](O)[C@H](n5cnc6c(=O)[nH]c(N)nc65)O[C@@H]4COP(=O)(O)O[C@H]3[C@H]2O)c(=O)[nH]1 [c-di-GMP]?
A: IC50 [2]: 7.41 ± 0.49 µM; Kd [1]: 1.21 µM

Q: With Nc1nc2c(ncn2[C@@H]2O[C@@H]3COP(=O)(O)O[C@H]4[C@@H](O)[C@H](n5cnc6c(N)ncnc65)O[C@@H]4COP(=O)(O)O[C@@H]2[C@@H]3O)c(=O)[nH]1 [cGAMP, 2′3-cGAMP] as the molecule, how does the “cGAMP percent cleavage FP Assay” value ([4]; 0 min) read?
A: The value was 0%.

Q: And the “cGAMP percent cleavage FP Assay” value ([4]; 10 min)?
A: Its value is 49%.

Q: And the “cGAMP percent cleavage FP Assay” value ([4]; 20 min)?
A: Its value is 77%.

Q: And the “cGAMP percent cleavage FP Assay” value ([4]; 30 min)?
A: Its value is 98%.

Q: What about the “cGAMP percent cleavage FP Assay” value ([4]; 40 min) of the same molecule?
A: Its value is 95%.

Q: What about the “cGAMP percent cleavage FP Assay” value ([4]; 50 min (assumed 100% cleavage)) of the same molecule?
A: Its value is 100%.

Q: What about the “cGAMP percent cleavage HPLC” value ([5]; 0 min) of the same molecule?
A: The value was 0%.

Q: What about the “cGAMP percent cleavage HPLC” value ([5]; 10 min) of the same molecule?
A: The value was 44%.

Q: What about the “cGAMP percent cleavage HPLC” value ([5]; 20 min) of the same molecule?
A: The value was 56%.

Q: What about the “cGAMP percent cleavage HPLC” value ([5]; 40 min) of the same molecule?
A: The value was 76%.

Q: And the “cGAMP percent cleavage HPLC” value ([5]; 50 min)?
A: The value was 85%.

Q: Which hSTING binding [1, 6] does the source give for Nc1nc2c(ncn2[C@@H]2O[C@H](COP(=O)(O)O)[C@@H](O)[C@H]2O)c(=O)[nH]1 [GMP] here?
A: Its hSTING binding is “do not bind”.

Q: For Nc1ncnc2c1ncn2[C@@H]1O[C@H](COP(=O)(O)O)[C@@H](O)[C@H]1O [AMP], which hSTING binding [1, 6] is on record?
A: The hSTING binding was “do not bind”.
